Entries after “also recorded” stand apart in the source; their conditions may differ. Read-outs that look alike come from different tables or passages of the source.
Legend:
[1] = format: physicochemical; details: for stability of the prodrug (in words): 1% HCl, pH 7.4 and pH 8.0 compared; for release of DMT / conversion to DMT (in words): all tested pHs: 1% HCl, pH 7.4, pH 8.0; for degradation of the prodrug: essentially instantaneous, with liberation of DMT
Description: Four compounds (i.e., methyl carbamate [compound 8, Example 8], boc carbamate [compound 11, […]], pinacol boronic ester [compound 1, Example 1] and TFA-amide [compound 3, Example 3]) were tested for their stability in 1% hydrochloric acid (HCl) as well as in phosphate buffers (0.1 M) at pH 7.4 and pH 8.0, respectively. These conditions were selected to assess the chemical stability of these compounds at a pH corresponding to different physiological conditions. Dilute hydrochloric acid (pH 1) was used to mimic the low pH of gastric acid within the stomach, while potassium phosphate buffers of pH 7.4 and pH 8.0 were used to mimic conditions in human blood and small intestine, respectively.
4 mg of each test compound was diluted in 4 mL of either a 1% HCl solution or the respective phosphate buffer (0.1 M), resulting in a solution of 1 mg/mL each. Regarding the acidic testing with hydrochloric acid, 2 mL of aqueous test compound solutions were then added to 2 mL of 2% (v/v) in distilled water, yielding a final HCl concentration of […] (pH 0.5). Test solutions were incubated at 37° C. with constant stirring for approximately 21 hours. The concentrations of the parent compound were analyzed at different timepoints using LC/MS. The concentrations of the parent prodrug and released drug were expressed relative to the starting concentration of the parent prodrug.

SERT [2] = target: T1, SERT (Homo sapiens, UniProt P31645); assay: Release (efflux) assay in HEK293-SERT cells loaded with [3H]5-HT; format: cell-based; design: expressed in transfected cells; details: Examples dissolved in HCl, DMT in DMSO, compared with pCA (full releaser)
T1 sequence (P31645 whole entry): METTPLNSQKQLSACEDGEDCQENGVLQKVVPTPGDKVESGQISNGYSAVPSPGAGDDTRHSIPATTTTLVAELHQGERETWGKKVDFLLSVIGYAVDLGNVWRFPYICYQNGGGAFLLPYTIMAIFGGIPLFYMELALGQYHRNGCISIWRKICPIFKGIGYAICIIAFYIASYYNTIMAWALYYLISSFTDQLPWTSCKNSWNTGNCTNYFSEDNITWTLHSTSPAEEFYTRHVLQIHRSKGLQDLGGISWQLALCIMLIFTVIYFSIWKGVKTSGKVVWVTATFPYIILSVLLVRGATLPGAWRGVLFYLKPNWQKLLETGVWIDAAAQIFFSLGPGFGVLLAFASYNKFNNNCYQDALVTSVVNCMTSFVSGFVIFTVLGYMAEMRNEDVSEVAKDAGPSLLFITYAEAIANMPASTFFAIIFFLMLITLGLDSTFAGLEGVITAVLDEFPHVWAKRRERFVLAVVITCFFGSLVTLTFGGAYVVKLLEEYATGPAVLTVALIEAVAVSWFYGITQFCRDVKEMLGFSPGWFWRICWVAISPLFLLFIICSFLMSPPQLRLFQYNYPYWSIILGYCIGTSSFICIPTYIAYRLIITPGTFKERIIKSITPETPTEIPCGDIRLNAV
Description: (§1) Human embryonic kidney (HEK) 293 cells stably expressing human SERT were maintained in humidified atmosphere (37° C., 5% CO2) in Dulbecco's Modified Eagle Medium (DMEM), supplemented with 10% heat-inactivated fetal calf serum (FCS), streptomycin (100 μg×100 mL^−1) and penicillin (100 U×100 mL^−1). Geneticin (50 μg×mL^−1) was used as selection antibiotic.
The day prior to the assay, stably expressing HEK293-SERT cells were seeded in a perfusion chamber of an IBIDI microfluidic chip (μ-Slide VI 0.5 Glass Bottom, ibidi GmbH). Chambers were previously coated with poly-D-lysine for 20 min at 37° C. and then cells were seeded at a density of approximately 1-10^6 cells×mL^−1.
For the release experiment, cells were loaded with radioactive substrate […] [^3H]5-HT for 20 min at 37° C. and then perfused with different solutions at constant flow rate (0.6 μL min^−1). […] The cells were flushed using sodium dodecyl sulfate (SDS) to retrieve the residual radioactivity (6 min). […]
Radioactivity was quantified with a beta-scintillation counter (PerkinElmer, Waltham, MA, USA). The released amount of tritiated substrate for each fraction was expressed as the amount of released tritium compared to the amount remaining in the cell at the end of the previous fraction. […]

SERT [3] = target: T1, SERT; assay: Uptake inhibition assay ([3H]5-HT) in HEK293-SERT cells; format: cell-based; design: expressed in transfected cells; details: for IC50: HEK293-SERT cells
Description: as §1
One day before the experiment, HEK293-SERT cells were seeded onto poly-D-lysine coated 96 well plates at a density of 30,000 cells per well in a final volume of 200 μL. For uptake experiments, the cell culture medium was replaced with 300 μL Krebs-HEPES buffer (KHB; 25 mM HEPES, 120 mM NaCl, 5 mM KCl, 1.2 mM CaCl2, 1.2 mM MgSO4, and 5 mM D-glucose, pH 7.3). Then, the buffer was replaced with various concentrations of test compounds for 5 minutes; subsequent to that, 0.1 μM [^3H]5-HT in KHB was added to yield a total volume of 50 μL in the well. For determination of non-specific uptake, paroxetine was used (3 μM).
Uptake was terminated after 60 s by washing the cells with 200 μL ice-cold KHB. Subsequently, the cells were lysed with 200 μL Ultima Gold™ XR liquid scintillation cocktail, and the amount of tritium in the cells was measured with a Wallac 1450 MicroBeta® TriLux liquid scintillation counter. Monoamine uptake data were fitted by nonlinear regression, Vmax and Km values were calculated from Michaelis Menten's least-squares fit with GraphPad Prism (Prism 9.0.2, GraphPad Software, San Diego, CA, USA).
We tested Example 1, Example 4, Example 13 in both uptake inhibition and release assays, and Example 15 in uptake inhibition assays. Drugs were tested either as the undecomposed prodrug or after treatment with 0.5% HCl at 37° C. for 24 hours in order to simulate digestion of the prodrug by gastric acid inside the body after peroral administration. DMT was tested dissolved only in DMSO.

SERT [4] = target: T1, SERT; design: host or cells: human platelets (endogenous SERT); details: read-out: uptake inhibition by DMT; human platelets expressing SERT; literature value; cited from earlier work
[5] = after treatment with 0.5% HCl at 37° C. for 24 hours, read-out: Uptake inhibition, IC50 values, SERT
[6] = undecomposed compound dissolved in DMSO, no HCl pre-treatment, read-out: Uptake inhibition, IC50 values, SERT

Row | Compound | stability of the prodrug (in words) [1] | release of DMT / conversion to DMT (in words) ([1]; 37° C.) | IC50 (SERT [3]; [5]) | IC50 (SERT [3]; [6]) | further results
1 | CN(C)CCc1cn(C(=O)C(F)(F)F)c2ccccc12 [Example 3, 1-(3-(2-(dimethylamino)ethyl)-1H-indol-1-yl)-2,2,2-trifluoroethan-1-one] | maximum stability under acidic conditions | releasing DMT rapidly within minutes | – | – | degradation of the prodrug ([1]; phosphate buffer (0.1 M) pH 7.4, 37° C.): 100%; degradation of the prodrug ([1]; phosphate buffer (0.1 M) pH 8.0, 37° C.): 100%
2 | COC(=O)n1cc(CCN(C)C)c2ccccc21 [Example 8, methyl 3-(2-(dimethylamino)ethyl)-1H-indole-1-carboxylate] | – | – | – | – | release of DMT at pH 7.4 and pH 8.0 ([1]; phosphate buffers (0.1 M) pH 7.4 and pH 8.0, 37° C.): continuous release of DMT
3 | CN(C)CCc1cn(C(=O)C(C)(C)C)c2ccccc12 [Example 4, 1-(3-(2-(dimethylamino)ethyl)-1H-indol-1-yl)-2,2-dimethylpropan-1-one] | – | – | 8.3 µM | ~2.1 µM | transporter-mediated efflux (release) via SERT (SERT [2]): induces even less efflux; also recorded: yields a lower efflux compared to both DMT and Example 1
4 | CN(C)CCc1c[nH]c2cccc(B3OC(C)(C)C(C)(C)O3)c12 [Example 1, N,N-dimethyl-2-(4-(4,4,5,5-tetramethyl-1,3,2-dioxaborolan-2-yl)-1H-indol-3-yl)ethan-1-amine] | maximum stability under acidic conditions | releasing DMT rapidly within minutes | 13.6 µM | 26.7 µM | –
5 | CN(C)CCc1cn(C(=O)OC(C)(C)C)c2ccccc12 [Example 11, tert-butyl 3-(2-(dimethylamino)ethyl)-1H-indole-1-carboxylate] | significantly more stable under all tested conditions | Conversion to DMT proceeded efficiently throughout the entire experiment at all pHs | – | – | liberation of DMT / conversion under acidic conditions ([1]; 1% HCl solution (pH 1.0), 37° C., approximately 21 hours): remarkably fast release time of two hours
6 | CN(C)CCc1c[nH]c2ccccc12 [DMT, N,N-Dimethyltryptamine] | – | – | – | – | IC50 (SERT [4]): ~10 µM; transporter-mediated efflux (release) via SERT (SERT [2]): almost full efficacious release; IC50 (SERT [3]; Uptake inhibition, IC50 values, SERT, undecomposed compound dissolved in DMSO, no HCl pre-treatment): 12.3 µM
7 | CN(C)CCc1cn(S(=O)(=O)C2CC2)c2ccccc12 [Example 13, 2-(1-(cyclopropylsulfonyl)-1H-indol-3-yl)-N,N-dimethylethan-1-amine] | – | – | 22.2 µM | 93.8 µM | interaction with the transporter without pre-treatment (in words) (SERT [3]; uptake inhibition, no HCl pre-treatment (DMSO)): interaction with the transporter was scarce

Reference: US20260132151A1, “NOVEL N,N-DIMETHYLTRYPTAMINE (DMT) DERIVATIVES AND USES THEREOF” (priority 2022, published 2026)
